Measured values as given in ChEMBL document CHEMBL5528039, “Discovery of a Macrocyclic Influenza Cap-Dependent Endonuclease Inhibitor” (J Med Chem, 2024).

Key:
Influenza A virus [1] = experiment: Antiviral activity against Influenza A virus A/PR/8/34 (H1N1) infected in MDCK cells assessed as reduction in virus-induced cytopathic effect incubated for 5 days by CCK8 based microplate spectrophotometric analysis; assay type: functional, organism-based; conditions: 120 h; for EC90: time 5 day
[2] = Half-life in BALB/c mouse at 2 mg/kg, iv measured after 24 hrs by LC-MS/MS analysis; assay type: ADME, organism-based; conditions: in vivo
[3] = Inhibition of influenza A virus A/WSN/33 (H1N1) RNA polymerase transfected in HEK293T/17 cells incubated for 24 hrs by dual luciferase reporter gene assay; assay type: cell-based; conditions: HEK293T/17, 24 h
Influenza A virus [4] = experiment: Antiviral activity against Influenza A virus A/California/07/2009 (H1N1) infected in MDCK cells assessed as reduction in virus-induced cytopathic effect incubated for 5 days by CCK8 based microplate spectrophotometric analysis; assay type: functional, organism-based; conditions: 120 h
Influenza B virus [5] = experiment: Antiviral activity against Influenza B virus B/Florida/78/2015 infected in MDCK cells assessed as reduction in virus-induced cytopathic effect incubated for 5 days by CCK8 based microplate spectrophotometric analysis; assay type: functional, organism-based; conditions: B/Florida/78/2015, MDCK, 120 h
[6] = Protein binding in mouse plasma assessed as unbound fraction at 400 uM incubated for 4 hrs by LC-MS/MS analysis; assay type: ADME, cell-free
Influenza B virus [7] = experiment: Antiviral activity against Influenza B virus B/Lee/40 infected in MDCK cells assessed as reduction in virus-induced cytopathic effect incubated for 5 days by CCK8 based microplate spectrophotometric analysis; assay type: functional, organism-based; conditions: B/Lee/40, MDCK, 120 h
Influenza A virus [8] = experiment: Antiviral activity against Influenza A virus A/California/2/2014 (H3N2) infected in MDCK cells assessed as reduction in virus-induced cytopathic effect incubated for 5 days by CCK8 based microplate spectrophotometric analysis; assay type: functional, organism-based; conditions: 120 h
[9] = AUC (0 to last) in BALB/c mouse at 2 mg/kg, iv measured after 24 hrs by LC-MS/MS analysis; assay type: ADME, organism-based; conditions: in vivo
[10] = Clearance in BALB/c mouse at 2 mg/kg, iv measured after 24 hrs by LC-MS/MS analysis; assay type: ADME, organism-based; conditions: in vivo
[11] = Metabolic stability in human liver microsomes assessed as intrinsic clearance at 1 uM measured upto 60 mins in presence of NADPH by LC-MS/MS analysis; assay type: ADME, Microsome; conditions: 1 h
[12] = Protein binding in human plasma assessed as unbound fraction at 400 uM incubated for 4 hrs by LC-MS/MS analysis; assay type: ADME, cell-free
[13] = Volume of distribution at steady state in BALB/c mouse at 2 mg/kg, iv measured after 24 hrs by LC-MS/MS analysis; assay type: ADME, organism-based; conditions: in vivo, read-out: Vdss

Question: With `CN1C(=O)c2c(O)c(=O)ccn2N2[C@H](c3ccccc3)c3ccc(F)c(F)c3OCC[C@@H]12` (racemic) as the molecule, how does the EC50 (Influenza A virus [1]) read?
Answer: 50 nM

Question: What about the EC90 (Influenza A virus [1]) of the same molecule?
Answer: 93 nM

Question: For `CN1C(=O)c2c(O)c(=O)ccn2N2[C@@H](c3ccccc3)c3ccccc3OCC[C@H]12`, which EC50 (Influenza A virus [1]) is on record?
Answer: > 500 nM

Question: And the EC90 (Influenza A virus [1])?
Answer: > 500 nM

Question: For `CN1C(=O)c2c(O)c(=O)ccn2N2[C@H](c3ccccc3Br)c3cc(F)c(F)cc3OCC[C@@H]12` (racemic), which EC50 (Influenza A virus [1]) is on record?
Answer: 11 nM

Question: And the EC90 (Influenza A virus [1])?
Answer: 18 nM

Question: Which EC50 (Influenza A virus [1]) does the source give for `CN1C(=O)c2c(O)c(=O)ccn2N2[C@H](c3ccccc3C#N)c3cc(F)c(F)cc3OCC[C@@H]12` (racemic) here?
Answer: > 500 nM

Question: What about the EC90 (Influenza A virus [1]) of the same molecule?
Answer: > 500 nM

Question: Which half-life [2] does the source give for `O=C1c2c(O)c(=O)ccn2N([C@@H]2c3ccccc3SCc3c2ccc(F)c3F)[C@@H]2COCCN12` [BALOXAVIR] here?
Answer: 3.9 h

Question: What about the EC50 [3] of the same molecule?
Answer: 5.46 nM

Question: And the EC50 (Influenza A virus [1])?
Answer: 2.1 nM

Question: And the EC90 (Influenza A virus [1])?
Answer: 4.6 nM

Question: And the EC50 (Influenza A virus [4])?
Answer: 1.4 nM

Question: What about the EC90 (Influenza A virus [4]; time 5 day) of the same molecule?
Answer: 3 nM

Question: What about the EC50 (Influenza B virus [5]) of the same molecule?
Answer: 4.8 nM

Question: What about the EC90 (Influenza B virus [5]; time 5 day) of the same molecule?
Answer: 7.4 nM

Question: And the fraction unbound at 4 h, 400 µM [6]?
Answer: 0.153

Question: And the EC50 (Influenza B virus [7])?
Answer: 21 nM

Question: What about the EC90 (Influenza B virus [7]; time 5 day) of the same molecule?
Answer: 43 nM

Question: And the EC50 (Influenza A virus [8])?
Answer: 1.2 nM

Question: And the EC90 (Influenza A virus [8]; time 5 day)?
Answer: 1.8 nM

Question: And the AUC(0-t) at 24 h [9]?
Answer: 1.35 µM·h

Question: What about the clearance [10] of the same molecule?
Answer: 61.6 mL/min/kg

Question: And the CLint [11]?
Answer: < 8.6 µL/min/mg

Question: And the fraction unbound at 4 h, 400 µM [12]?
Answer: 0.083

Question: And the Vd [13]?
Answer: 14 L/kg

Question: For `CN1C(=O)c2c(O)c(=O)ccn2N2[C@H](c3ccc(F)c(F)c3)c3cc(F)c(F)cc3OCC[C@@H]12`, which EC50 (Influenza A virus [1]) is on record?
Answer: 25 nM

Question: What about the EC90 (Influenza A virus [1]) of the same molecule?
Answer: 42 nM

Question: Which EC50 (Influenza A virus [1]) does the source give for `CC(C)N1C(=O)c2c(O)c(=O)ccn2N2[C@H](c3ccccc3)c3ccccc3OCC[C@@H]12` (racemic) here?
Answer: 53 nM

Question: What about the EC90 (Influenza A virus [1]) of the same molecule?
Answer: 105 nM

Question: For `CN1C(=O)c2c(O)c(=O)ccn2N2[C@H](c3ccc(F)cc3)c3cc(F)c(F)cc3OCC[C@@H]12`, which EC50 (Influenza A virus [1]) is on record?
Answer: 14 nM

Question: What about the EC90 (Influenza A virus [1]) of the same molecule?
Answer: 24 nM

Question: For `CN1C(=O)c2c(O)c(=O)ccn2N2[C@H](c3ccccc3)c3ccccc3OCC[C@@H]12`, which EC50 (Influenza A virus [1]) is on record?
Answer: 14 nM

Question: What about the EC90 (Influenza A virus [1]) of the same molecule?
Answer: 26 nM

Question: With `CN1C(=O)c2c(O)c(=O)ccn2N2C(c3ccccc3)c3ccccc3OCCC12` (racemic) as the molecule, how does the EC50 (Influenza A virus [1]) read?
Answer: > 1000 nM

Question: What about the EC90 (Influenza A virus [1]) of the same molecule?
Answer: > 1000 nM

Question: What does the source list for `CN1C(=O)c2c(O)c(=O)ccn2N2[C@H](c3ccccc3F)c3cc(F)c(F)cc3OCC[C@@H]12`?
Answer: EC50 (Influenza A virus [1]): 11 nM; EC90 (Influenza A virus [1]): 16 nM

Question: Which EC50 (Influenza A virus [1]) does the source give for `O=C1c2c(O)c(=O)ccn2N2[C@H](c3ccccc3)c3ccccc3OCC[C@H]2N1C1CCC1` (racemic) here?
Answer: 65 nM

Question: And the EC90 (Influenza A virus [1])?
Answer: 120 nM
